Broadly, the DC50 is the midpoint of the concentration-degradation curve. By Emax is commonly meant the size of the effect at its maximum, as opposed to the concentration needed.

This test concerns the target BRAF V600E (Homo sapiens, UniProt P15056, V600E). Briefly: HiBiT cellular BRAF^V600E degradation assay. Format: cell-based. Particulars: for DC50: concentration at which 50% of total cellular BRAF^V600E is degraded; for Emax: read-out: HiBit 24 h Emax.
The mark [1] stands for this setting: A375.10 cells, 24 h, residual protein remaining in the cell.

Like-named read-outs stand apart in the source and are kept apart here.

BRAF V600E, sequence (P15056 whole entry V600E): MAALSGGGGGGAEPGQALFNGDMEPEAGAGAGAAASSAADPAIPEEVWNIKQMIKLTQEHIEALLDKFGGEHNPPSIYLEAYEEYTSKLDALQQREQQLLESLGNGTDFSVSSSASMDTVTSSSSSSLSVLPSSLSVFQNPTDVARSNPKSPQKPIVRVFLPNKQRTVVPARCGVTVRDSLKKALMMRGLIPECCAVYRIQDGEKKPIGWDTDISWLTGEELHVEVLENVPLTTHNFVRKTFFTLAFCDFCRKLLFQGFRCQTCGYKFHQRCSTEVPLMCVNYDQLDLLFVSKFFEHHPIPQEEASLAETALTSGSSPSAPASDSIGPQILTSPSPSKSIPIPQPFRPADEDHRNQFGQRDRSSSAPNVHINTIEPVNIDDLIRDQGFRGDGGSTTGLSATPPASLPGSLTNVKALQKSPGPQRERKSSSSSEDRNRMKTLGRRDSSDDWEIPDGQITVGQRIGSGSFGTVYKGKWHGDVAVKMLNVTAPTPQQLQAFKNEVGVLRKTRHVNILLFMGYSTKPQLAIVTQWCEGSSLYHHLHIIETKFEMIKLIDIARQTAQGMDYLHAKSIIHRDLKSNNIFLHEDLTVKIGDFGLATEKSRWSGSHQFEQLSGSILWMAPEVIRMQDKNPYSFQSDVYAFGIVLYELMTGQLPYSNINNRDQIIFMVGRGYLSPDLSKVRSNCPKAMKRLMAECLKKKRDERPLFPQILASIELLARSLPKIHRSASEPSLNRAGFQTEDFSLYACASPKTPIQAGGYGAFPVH

With `CCN(C)S(=O)(=O)Nc1ccc(F)c(Oc2ccc3ncn([C@H]4COC5(CCN(C(=O)CN6CCC(c7ccc(N[C@@H]8CCC(=O)NC8=O)cc7F)CC6)CC5)C4)c(=O)c3c2)c1C#N` [Example 42, (3R)-3-[6-[2-cyano-3-[[ethyl(methyl)sulfamoyl]amino]-6-fluorophenoxy]-4-oxoquinazolin-3-yl]-8-[2-[4-[4-[[(3R)-2,6-dioxopiperidin-3-yl]amino]-2-fluorophenyl]piperidin-1-yl]acetyl]-1-oxa-8-azaspiro[4.5]decane], half-maximal degradation (A375.10 cells, 24 h) (DC50) was put at 22.1 nM. For the same compound, the Emax under setting [1] came out at 8.88%.
Regarding `CCN(C)S(=O)(=O)Nc1ccc(F)c(Oc2ccc3ncn([C@H]4COC5(CCN(C(=O)CN6CCC(c7ccc(N[C@H]8CCC(=O)NC8=O)cc7F)CC6)CC5)C4)c(=O)c3c2)c1C#N` [Example 43, (3R)-3-[6-[2-cyano-3-[[ethyl(methyl)sulfamoyl]amino]-6-fluorophenoxy]-4-oxoquinazolin-3-yl]-8-[2-[4-[4-[[(3S)-2,6-dioxopiperidin-3-yl]amino]-2-fluorophenyl]piperidin-1-yl]acetyl]-1-oxa-8-azaspiro[4.5]decane], where the note is “A375.10 cells, 24 h”, the DC50 was found to be 23.7 nM. Moreover, under setting [1], the Emax is 9.95%.
Taken in the same sequence, the figures for `CCN(C)S(=O)(=O)Nc1ccc(F)c(Oc2ccc3ncn([C@@H]4CCC5(CCN(C(=O)CN6CCC(c7ccc(N[C@@H]8CCC(=O)NC8=O)cc7F)CC6)CC5)C4)c(=O)c3c2)c1C#N` [Example 44, 6-[2-cyano-3-[[ethyl(methyl)sulfamoyl]amino]-6-fluorophenoxy]-3-[(3R)-8-[2-[4-[4-[[(3R)-2,6-dioxopiperidin-3-yl]amino]-2-fluorophenyl]piperidin-1-yl]acetyl]-8-azaspiro[4.5]decan-3-yl]-4-oxoquinazoline] were 25.1 nM and 14.4%.
Under “A375.10 cells, 24 h”, `CCN(C)S(=O)(=O)Nc1ccc(F)c(Oc2ccc3ncn([C@@H]4CCC5(CCN(C(=O)CN6CCC(c7ccc(N[C@H]8CCC(=O)NC8=O)cc7F)CC6)CC5)C4)c(=O)c3c2)c1C#N` [Example 45, 6-[2-cyano-3-[[ethyl(methyl)sulfamoyl]amino]-6-fluorophenoxy]-3-[(3R)-8-[2-[4-[4-[[(3S)-2,6-dioxopiperidin-3-yl]amino]-2-fluorophenyl]piperidin-1-yl]acetyl]-8-azaspiro[4.5]decan-3-yl]-4-oxoquinazoline] returned a DC50 of 18.7 nM. For the same compound, the Emax under setting [1] is 11.3%.
Under “A375.10 cells, 24 h”, `CCN(C)S(=O)(=O)Nc1ccc(F)c(Oc2ccc3ncn([C@H]4COC5(CCN(C(=O)CN6CCC(c7ccc(C8CCC(=O)NC8=O)cc7F)CC6)CC5)C4)c(=O)c3c2)c1C#N` (stereo partly drawn) [Example 46, (3R)-3-[6-[2-cyano-3-[[ethyl(methyl)sulfamoyl]amino]-6-fluorophenoxy]-4-oxoquinazolin-3-yl]-8-[2-[4-[4-(2,6-dioxopiperidin-3-yl)-2-fluorophenyl]piperidin-1-yl]acetyl]-1-oxa-8-azaspiro[4.5]decane] displayed a DC50 of 29.9 nM. Under setting [1], the Emax was determined as 13.4%.
`CCN(C)S(=O)(=O)Nc1ccc(F)c(Oc2ccc3ncn([C@H]4COC5(CCN(C(=O)CC6CCN(c7ccc(NC8CCC(=O)NC8=O)cc7F)CC6)CC5)C4)c(=O)c3c2)c1C#N` (stereo partly drawn) [Example 47, (3R)-3-[6-[2-cyano-3-[[ethyl(methyl)sulfamoyl]amino]-6-fluorophenoxy]-4-oxoquinazolin-3-yl]-8-[2-[1-[4-[(2,6-dioxopiperidin-3-yl)amino]-2-fluorophenyl]piperidin-4-yl]acetyl]-1-oxa-8-azaspiro[4.5]decane]: where the note is “A375.10 cells, 24 h”, the DC50 was 25.7 nM. Under setting [1], the Emax worked out at 19.3%.
With `CCN(C)S(=O)(=O)Nc1ccc(F)c(Oc2ccc3ncn([C@H]4CCC5(CCN(C(=O)CN6CCN(c7ccc(NC8CCC(=O)NC8=O)cc7F)CC6)CC5)C4)c(=O)c3c2)c1C#N` (stereo partly drawn) [Example 48, 6-[2-cyano-3-[[ethyl(methyl)sulfamoyl]amino]-6-fluorophenoxy]-3-[(3S)-8-[2-[4-[4-[(2,6-dioxopiperidin-3-yl)amino]-2-fluorophenyl]piperazin-1-yl]acetyl]-8-azaspiro[4.5]decan-3-yl]-4-oxoquinazoline], for the setting “A375.10 cells, 24 h”, it took 34.5 nM to reach half-maximal degradation (DC50). For the same compound, the maximum response (Emax) under setting [1] was found to be 15.6%.
Turning to `N#Cc1c(NS(=O)(=O)N2CC[C@@H](F)C2)ccc(F)c1Oc1ccc2ncn([C@H]3COC4(CCN(C(=O)CN5CCC(c6ccc(NC7CCC(=O)NC7=O)cc6F)CC5)CC4)C3)c(=O)c2c1` (stereo partly drawn) [Example 49, (3R)—N-[2-cyano-3-[3-[(3R)-8-[2-[4-[4-[(2,6-dioxopiperidin-3-yl)amino]-2-fluorophenyl]piperidin-1-yl]acetyl]-1-oxa-8-azaspiro[4.5]decan-3-yl]-4-oxoquinazolin-6-yl]oxy-4-fluorophenyl]-3-fluoropyrrolidine-1-sulfonamide], for the setting “A375.10 cells, 24 h”, the DC50 was 148 nM. The Emax under setting [1] was 10.8%.
The compound `CCN(C)S(=O)(=O)Nc1ccc(F)c(Oc2ccc3ncn([C@H]4COC5(CCN(C(=O)CN6CCN(c7ccc(NC8CCC(=O)NC8=O)cc7F)CC6)CC5)C4)c(=O)c3c2)c1C#N` (stereo partly drawn) [Example 50, (3R)-3-[6-[2-cyano-3-[[ethyl(methyl)sulfamoyl]amino]-6-fluorophenoxy]-4-oxoquinazolin-3-yl]-8-[2-[4-[4-[(2,6-dioxopiperidin-3-yl)amino]-2-fluorophenyl]piperazin-1-yl]acetyl]-1-oxa-8-azaspiro[4.5]decane] yielded a DC50 (A375.10 cells, 24 h) of 128 nM. Further, under setting [1], the Emax came to 13.4%.
The like results for `CCN(C)S(=O)(=O)Nc1ccc(F)c(Oc2ccc3ncn(C4COC5(CCN(C(=O)CN6CCC(c7ccc(NC8CCC(=O)NC8=O)cc7F)CC6)CC5)C4)c(=O)c3c2F)c1C#N` (stereo not drawn) [Example 51, 3-[6-[2-cyano-3-[[ethyl(methyl)sulfamoyl]amino]-6-fluorophenoxy]-5-fluoro-4-oxoquinazolin-3-yl]-8-[2-[4-[4-[(2,6-dioxopiperidin-3-yl)amino]-2-fluorophenyl]piperidin-1-yl]acetyl]-1-oxa-8-azaspiro[4.5]decane] were, in that order, 29.6 nM and 10.9%.
Compound `CCN(C)S(=O)(=O)Nc1ccc(F)c(Oc2ccc3ncn(C4CCC5(CCN(C(=O)CN6CCC(c7ccc(NC8CCC(=O)NC8=O)cc7F)CC6)CC5)C4)c(=O)c3c2F)c1C#N` (stereo not drawn) [Example 52, 6-[2-cyano-3-[[ethyl(methyl)sulfamoyl]amino]-6-fluorophenoxy]-3-[8-[2-[4-[4-[(2,6-dioxopiperidin-3-yl)amino]-2-fluorophenyl]piperidin-1-yl]acetyl]-8-azaspiro[4.5]decan-3-yl]-5-fluoro-4-oxoquinazoline] gave a DC50 (A375.10 cells, 24 h) of 20.7 nM. The Emax under setting [1] turned out to be 11.4%.
Turning to `CCN(C)S(=O)(=O)Nc1ccc(F)c(Oc2ccc3ncn([C@H]4COC5(CCN(C(=O)CN6CCC(c7ccc(NC8CCC(=O)NC8=O)c(F)c7)CC6)CC5)C4)c(=O)c3c2)c1C#N` (stereo partly drawn) [Example 54, (3R)-3-[6-[2-cyano-3-[[ethyl(methyl)sulfamoyl]amino]-6-fluorophenoxy]-4-oxoquinazolin-3-yl]-8-[2-[4-[4-[(2,6-dioxopiperidin-3-yl)amino]-3-fluorophenyl]piperidin-1-yl]acetyl]-1-oxa-8-azaspiro[4.5]decane], the maximal response (Emax) is 12.1%. Also, where the note is “A375.10 cells, 24 h”, the DC50 came out at 15.4 nM.

The values above are taken from patent US12486253B2, “Therapeutics for the degradation of mutant BRAF” (C4 THERAPEUTICS, INC., priority 2021, dated 2025).
